Measurements: patent US10993912B2, “Carrier-antibody compositions and methods of making and using the same” (MAYO FOUNDATION FOR MEDICAL EDUCATION AND RESEARCH, priority 2014, dated 2021)

Experiments:
ABX [1] = molecular target: T1, ABX (Homo sapiens, UniProt P02768); assay: Binding of cisplatin to ABX, free cisplatin by HPLC; details: ABX 5 mg/ml, cisplatin 0.5 mg/ml, room temperature 30 minutes
T1 construct: purchased Celgene Corporation, Summit, N.J

[2] = tested on: A375 human melanoma cells; assay: A375 xenograft, pretreatment with BEV before AB160; format: in vivo, athymic nude mice; details: 12 mg/kg dose
From the text: Data is represented at day 7-post and 10-day treatment as tumor volume in mm^3.
Data is represented at day 7-post and day 10-post treatment as tumor volume in mm^3. F 11A-E track tumor size over 10 days. […] See also FIG. 11F and FIG. 11G.

[3] = tested on: A375 human melanoma cells; assay: A375 xenograft efficacy in athymic nude mice; format: in vivo; details: Example 5; ABX 30 mg/kg, BEV 12 mg/kg, tumors about 700 mm^3 at treatment
Description: Tumor response was determined at day 7 post-treatment by the percent change in tumor size from the day of treatment.
In vivo experiments were performed at least 2 times. The number of mice required for those experiments was determined by power analysis. Mouse tumors were measured 2-3 times/week and mice were sacrificed when the tumor was 10% by weight. […] The end point of the mouse studies was median survival. Kaplan-Meier curves were generated and Mantle-Cox test was performed to determine significance of median survival between treatment groups. The in vitro results presented are representative of at least 5 repeated experiments. Statistical analyses of in vitro and in vivo percent change from baseline experiments were done using the Student's t-test.
(§1) To test tumor efficacy, 1×10^6 A375 human melanoma cells were implanted into the right flank of athymic nude mice (Harlan Sprague Dawley, Indianapolis, Ind.). […] Tumor size was monitored 3 times/week and tumor volume was calculated with the following equation: (length*width^2)/2. Mice were sacrificed when the tumor size equaled 10% of the mouse body weight or about 2500 mm^3. The day 7 percent change from baseline was calculated as follows: [(tumor size on treatment day-tumor size on day 7)/tumor size on treatment day]*100.

ABX [4] = molecular target: T1, ABX; assay: Bio-Layer Interferometry (BLItz) binding assay of antibody and ABX; details: for dependence of binding affinity to ABX on pH / temperature: pH 3, 5, 7, 9, for BEV also RT, 37° C. and 58° C.
Description: The association and dissociation constants were calculated using the BLItz software.

[5] = tested on: Daudi human lymphoma cells; assay: Daudi xenograft efficacy in athymic nude mice; format: in vivo; details: ABX 30 mg/kg, rituximab 12 mg/kg
Description: Tumor response was determined at day 7 post-treatment by the percent change in tumor size from the first day of treatment.
as §1

With `N.N.[Cl][Pt][Cl]` [cisplatin] as the compound, how does the “cisplatin remaining in the supernatant” value (ABX [1]) read?
The value was 40%.

For bevacizumab, which “therapeutic effect of BEV alone” value [2] is on record?
Its value is “not therapeutic”.

And the median survival [3]?
Its median survival is 14 days.

What about the “binding affinity to ABX (in words)” value (ABX [4]) of the same compound?
Its value is “picomolar range”.

And the “dependence of binding affinity to ABX on pH / temperature” value (ABX [4])?
The value was “highest binding affinity observed when the particles are formed at pH 5 and 58 °C”.

What does the source list for rituximab?
median survival [5]: 12 days; binding affinity to ABX (in words) (ABX [4]): picomolar range; dependence of binding affinity to ABX on pH / temperature (ABX [4]): decreased with higher pH
